Data as given in ChEMBL document CHEMBL5344416, “Phenothiazines as anti-cancer agents: SAR overview and synthetic strategies” (Eur J Med Chem, 2023).
Each block holds one molecule with its values, some of them ahead of it.

Key:
[1] = test system: MCF7; experiment: Anticancer activity against human MCF7 cells assessed as cell growth inhibition incubated for 48 hrs by MTT assay; format: functional, cell-based; conditions: MCF7, 48 h
[2] = test system: SNB-19; experiment: Anticancer activity against human SNB-19 cells assessed as reduction in cell growth by SRB assay; format: functional, cell-based
[3] = test system: TC-32; experiment: Cytotoxicity against human TC-32 cells assessed as reduction in cell viability; format: functional, cell-based
[4] = test system: MCF7; experiment: Cytotoxicity against human MCF7 cells assessed as reduction in cell growth; format: functional, cell-based
[5] = Cytotoxicity against human HFF-1 cells assessed as reduction of cell viability incubated for 72 hrs by CCK-8 assay; format: toxicity, cell-based
[6] = test system: TC-32; experiment: Cytotoxicity against human TC-32 cells assessed as reduction in cell viability incubated for 48 hrs by CellTiter-Blue reagent based […] assay; format: functional; conditions: TC-32, 48 h
[7] = test system: SNB-19; experiment: Antiproliferative activity against human SNB-19 cells assessed as cell growth inhibition incubated for 72 hrs by WST-1 assay; format: functional, cell-based; conditions: SNB-19, 72 h
[8] = test system: T47D; experiment: Antiproliferative activity against human T47D cells assessed as cell growth inhibition after 48 hrs by SRB assay; format: functional, cell-based
[9] = test system: MKN-28; experiment: Antiproliferative activity against human MKN-28 cells assessed as reduction in cell viability by MTT assay; format: functional, cell-based
[10] = test system: MGC-803; experiment: Antiproliferative activity against human MGC-803 cells assessed as reduction in cell growth by MTT assay; format: functional, cell-based
[11] = test system: MKN-45; experiment: Antiproliferative activity against human MKN-45 cells assessed as cell growth inhibition by MTT assay; format: functional, cell-based
[12] = test system: MCF7; experiment: Antiproliferative activity against human MCF7 cells assessed as cell growth inhibition by MTT assay; format: functional, cell-based
[13] = test system: SW1990; experiment: Anticancer activity against human SW1990 cells assessed as reduction in cell viability incubated for 72 hrs by MTT assay; format: functional, cell-based; conditions: SW1990, 72 h
[14] = test system: ASPC1; experiment: Anticancer activity against human ASPC1 cells assessed as reduction in cell growth incubated for 72 hrs by MTT assay; format: functional, cell-based; conditions: ASPC1, 72 h
[15] = Antioxidant activity assessed as DPPH radical scavenging activity incubated for 30 mins; format: functional
[16] = test system: SNB-19; experiment: Anticancer activity against human SNB-19 cells assessed as reduction in cell growth incubated for 48 hrs by SRB assay; format: functional, cell-based; conditions: SNB-19, 48 h
[17] = test system: TC-32; experiment: Anticancer activity against human TC-32 cells assessed as reduction in cell growth incubated for 48 hrs by SRB assay; format: functional, cell-based; conditions: TC-32, 48 h
[18] = test system: MDA-MB-231; experiment: Anticancer activity against human MDA-MB-231 cells assessed as reduction in cell viability measured after 72 hrs by MTT assay; format: functional, cell-based; conditions: MDA-MB-231, 72 h
[19] = test system: SNB-19; experiment: Antiproliferative activity against human SNB-19 cells assessed as reduction in cell proliferation incubated for 72 hrs by WST-1 assay; format: functional, cell-based; conditions: SNB-19, 72 h
[20] = test system: TC-32; experiment: Antiproliferative activity against human TC-32 cells assessed as reduction in cell proliferation incubated for 72 hrs by WST-1 assay; format: functional, cell-based; conditions: TC-32, 72 h
[21] = test system: MDA-MB-231; experiment: Antiproliferative activity against human MDA-MB-231 cells assessed as reduction in cell proliferation incubated for 72 hrs by WST-1 assay; format: functional, cell-based; conditions: MDA-MB-231, 72 h
[22] = test system: U-87 MG; experiment: Antiproliferative activity against human U87 cells assessed as reduction in cell viability incubated for 48 hrs by MTT assay; format: functional, cell-based, U-87MG ATCC
[23] = test system: U-251; experiment: Antiproliferative activity against human U-251 cells assessed as reduction in cell viability incubated for 48 hrs by MTT assay; format: functional, cell-based; conditions: U-251, 48 h
[24] = test system: CT26; experiment: Antitumor activity against mouse CT26 cells assessed as reduction in cell viability incubated for 4 hrs by MTT assay; format: functional, cell-based; conditions: CT26, 4 h
[25] = test system: CT26; experiment: Antitumor activity against mouse CT26 cells assessed as tumor growth inhibition incubated for 4 hrs by MTT assay relative to control; format: functional; design: scale not given: the % may be the effect or the level left
[26] = test system: MCF7; experiment: Antitumor activity against human MCF7 cells assessed as inhibition of cell growth at 1000 ug measured after 48 hrs by spectrophotometric analysis relative to control; format: functional; design: scale not given: the % may be the effect or the level left; conditions: dose 1000 µg
[27] = test system: MCF7; experiment: Antitumor activity against human MCF7 cells assessed as increase in LDH level at 1000 ug relative to control; format: functional; conditions: dose 1000 µg
[28] = test system: A549; experiment: Anticancer activity against human A549 cells assessed as inhibition of cell proliferation measured after 48 hrs by MTT assay; format: functional, cell-based; conditions: A549, 48 h
[29] = test system: HepG2; experiment: Anticancer activity against human HepG2 cells assessed as inhibition of cell proliferation measured after 48 hrs by MTT assay; format: functional, cell-based; conditions: HepG2, 48 h
[30] = test system: MCF7; experiment: Anticancer activity against human MCF7 cells assessed as inhibition of cell growth incubated for 48 hrs by MTT assay; format: functional, cell-based; conditions: MCF7, 48 h
[31] = test system: MCF7; experiment: Cytotoxicity against human MCF7 cells assessed as reduction in cell viability by MTT assay; format: functional, cell-based
[32] = Antioxidant activity assessed as DPPH radical scavenging activity; format: functional
[33] = Antioxidant activity assessed as ABTS radical scavenging activity; format: functional
[34] = test system: MCF7; experiment: Cytotoxicity against human MCF7 cells assessed as reduction in cell growth incubated for 96 hrs by MTT assay; format: functional, cell-based; conditions: MCF7, 96 h
[35] = test system: MDA-MB-231; experiment: Cytotoxicity against human MDA-MB-231 cells assessed as reduction in cell viability incubated for 24 hrs by MTT assay; format: functional, cell-based; conditions: MDA-MB-231, 24 h
[36] = test system: MDA-MB-468; experiment: Cytotoxicity against human MDA-MB-468 cells assessed as cell viability measured after 3 days by Cell Titer Blue assay; format: functional, cell-based; conditions: MDA-MB-468, 72 h
[37] = test system: SK-BR-3; experiment: Cytotoxicity against human SK-BR-3 cells assessed as cell growth inhibition incubated for 48 hrs by WST-1 assay; format: functional, cell-based; conditions: SK-BR-3, 48 h
[38] = test system: T47D; experiment: Cytotoxicity against human T47D cells assessed as reduction in cell viability after 48 hrs by MTT assay; format: functional, cell-based
[39] = Cytotoxicity in human MCF-10A cells assessed as reduction in cell viability incubated for 72 hrs by MTT assay; format: toxicity, cell-based

SMILES: CN1CCN(CC#CCN2c3ccncc3Sc3ccncc32)CC1
IC50 [6]: 35 µM | IC50 [7]: 21.2 µM | IC50 [8]: 9.6 µM

SMILES: CN(C)CCN1CCN(CCCN2c3ccccc3Sc3ccc(C(F)(F)F)cc32)CC1
IC50 [12]: 0.42 µM

SMILES: C#CCN1c2ncccc2Sc2cccnc21
IC50 [19]: 3.85 µM | IC50 [20]: 3.37 µM | IC50 [21]: 14.1 µM

SMILES: CSc1ccc2c(c1)N(CCCn1ccc(=O)[nH]c1=O)c1ccccc1S2
IC50 [1]: 1.35 µM

SMILES: CCN(CC)CC#CCN1c2ccncc2Sc2ncccc21
IC50 [16]: 0.11 µM | IC50 [17]: 0.54 µM | IC50 [18]: 6.32 µM

SMILES: CN1c2ccccc2Sc2cc(/C=N/NC(=O)Cn3c4ccccc4c4ccccc43)ccc21
Activity [26]: 48% | Activity [27]: 48%

SMILES: CCN1c2ccc(-c3ccccc3)cc2Sc2cc(-c3nnc4ccccn34)ccc21
IC50 [34]: 6.2 µM | IC50 [35]: 19.4 µM | IC50 [36]: 9.7 µM | IC50 [37]: 31.5 µM | IC50 [38]: 11.7 µM | IC50 at 72 h [39]: 13.4 µM

More lines, main results first:

IC50 [1]: 8.3 µM
SMILES: c1cnc2c(c1)Nc1ccncc1S2
IC50 [2]: 0.58 µM | IC50 [3]: 0.72 µM | IC50 [4]: 0.46 µM | IC50 at 72 h [5]: 38.6 µM

IC50 [9]: 2.7 µM | IC50 [10]: 1.2 µM | IC50 [11]: 3.5 µM
SMILES: COc1ccc(-n2cc(CN3c4ccccc4Sc4ccccc43)nn2)c([N+](=O)[O-])c1

IC50 [13]: 13.3 µM | IC50 [14]: 25.3 µM | IC50 [15]: 37.3 µM
SMILES: CCCCCN1c2ccccc2Sc2cc(/C=C(\C#N)C(N)=O)ccc21

IC50 [18]: 2.81 µM
SMILES: CCN(C)CC#CCN1c2ccncc2Sc2ncccc21
IC50 [16]: 0.11 µM | IC50 [17]: 1.53 µM

IC50 [22]: 5.12 µM | IC50 [23]: 9.29 µM
SMILES: O=[N+]([O-])c1ccccc1S(=O)(=O)N1c2ccccc2Sc2ccc(Cl)cc21

IC50 [24]: 286 µM
SMILES: COCCOCCOCCOCCOCCOCCOCCOCCOCCOCCOCCOC(=O)CN1c2ccccc2Sc2ccccc21
Activity [25]: 92%

IC50 [28]: 5.37 µM | IC50 [29]: 5.37 µM
SMILES: COc1ccc(N/N=C2/SC(N/N=C(\C)c3ccc4c(c3)Nc3ccccc3S4)=NC2=O)cc1

IC50 [30]: 3.45 µM
SMILES: COCCSc1nnc(CN2c3ccccc3Sc3ccc(Cl)cc32)s1

IC50 [32]: 37.3 µM | IC50 [33]: 41.1 µM
SMILES: C/C(=N\c1ccc(/N=N/c2ccccc2)cc1)c1ccc2c(c1)Nc1ccccc1S2
IC50 [31]: 34.6 µM
